Data reported in patent US20230276817A1, “PREPARATION AND METHOD FOR IMPROVING RiNG ROT RESISTANCE OF APPLE FRUITS” (Shandong Institute of Pomology, priority 2022, published 2023).

What was measured:
Assay type in all cases: in vivo
[1] = tested on: Botryosphaeria dothidea; test: In-vitro inoculation of sorbitol-soaked mature "Red delicious" apple fruits with ring rot fungus
Experimental: (§1) A fungus block of Botrvosphaeria dothidea was inoculated in a potato dextrose agar (PDA) medium by a puncher having a diameter of 5 mm, and inverted and cultured in the dark at 28° C. for 10 days.
S21: An in-vitro inoculation method was adopted for identifying disease resistance of the “Red delicious” apple fruits; and 6 treatments were set as follows:
S22: Surfaces of mature “Red delicious” fruits (within 140 days after flowering) were disinfected with 0.1% of sodium hypochlorite; and the fruits were fully washed with sterilized deionized water, aired and stood at 25° C. for 12 h for later use.
S23: The “Red delicious” fruits of the same size were selected and respectively soaked in the sterilized deionized water, the sorbitol solution of 100 mM, the sorbitol solution of 150 mM, the sorbitol solution of 200 mM and the sorbitol solution of 300 mM; and 10 fruits were treated in each treatment. The apples were taken out within 3 h after treatment; surface liquid was wiped up; middle parts of the surfaces of the apple fruits were punctured by sterilized toothpicks at a depth of 5 mm: 0.02 g of Botryosphaeria. dothidea hyphae having vigorous and consistent growth within 10 days was added into the punctured parts; and the single pathogenic fungus inoculation treatment was taken as control. After inoculation, the “Red delicious” fruits were cultured in a thermostatic incubator at 28° C. in the dark. A disease spot diameter served as a measurement standard of the incidence degree of the apple fruits; diameters of 5 points of each disease spot were measured; and the mean value was taken as the result. Since 3 d after treatment, disease spot diameters of the apple fruits in different treatments were photographed and recorded every day; and the diameters were continuously recorded for 4 d. A significance level of disease spot size differences among the treatment groups was calculated according to analysis of variance.

[2] = tested on: Botryosphaeria dothidea; test: In-vitro inoculation of sorbitol-soaked mature "Fuji" apple fruits with ring rot fungus
Experimental: as §1
S31: An in-vitro inoculation method was adopted for identifying disease resistance of the “Fuji” apple fruits; and 6 treatments were set as follows:
S32: Surfaces of mature “Fuji” fruits (within 180 days after flowering) were disinfected with 0.1% of sodium hypochlorite; and the fruits were fully washed with sterilized deionized water, aired and stood at 25° C. for 12 h for later use.
S33: The “Fuji” fruits of the same size were selected and respectively soaked in the sterilized deionized water, the sorbitol solution of 100 mM, the sorbitol solution of 150 mM, the sorbitol solution of 200 mM and the sorbitol solution of 300 mM; and 10 fruits were treated in each treatment. The apples were taken out within 3 h after treatment; surface liquid was wiped up; middle parts of the surfaces of the apple fruits were punctured by sterilized toothpicks at a depth of 5 mm; 0.02 g of Botryosphaeria dothidea hyphae having vigorous and consistent growth within 10 days was added into the punctured parts; and the single pathogenic fungus inoculation treatment was taken as control. After inoculation, the “Fuji” fruits were cultured in a thermostatic incubator at 28° C. in the dark. A disease spot diameter served as a measurement standard of the incidence degree of the apple fruits; diameters of 5 points of each disease spot were measured; and the mean value was taken as the result. Since 3 d after treatment, disease spot diameters of the apple fruits in different treatments were photographed and recorded every day; and the diameters were continuously recorded for 4 d. A significance level of disease spot size differences among the treatment groups was calculated according to analysis of variance.

[3] = tested on: Botryosphaeria dothidea; test: In-vitro inoculation of sorbitol-soaked mature "Gala" apple fruits with ring rot fungus
Experimental: as §1
S41: An in-vitro inoculation method was adopted for identifying disease resistance of the “Gala” apple fruits, and 6 treatments were set as follows:
S42: Surfaces of mature “Gala” fruits (within 120 days after flowering) were disinfected with 0.1% of sodium hypochlorite; and the fruits were fully washed with sterilized deionized water, aired and stood at 25° C. for 12 h for later use.
S43: The “Gala” fruits of the same size were selected and respectively soaked in the sterilized deionized water, the sorbitol solution of 100 mM, the sorbitol solution of 150 mM, the sorbitol solution of 200 mM and the sorbitol solution of 300 mM; and 10 fruits were treated in each treatment. The apples were taken out within 3 h after treatment; surface liquid was wiped up; middle parts of the surfaces of the apple fruits were punctured by sterilized toothpicks at a depth of 5 mm; 0.02 g of Botryosphaeria dothidea hyphae having vigorous and consistent growth within 10 days was added into the punctured parts; and the single pathogenic fungus inoculation treatment was taken as control. After inoculation, the “Gala” fruits were cultured in a thermostatic incubator at 28° C. in the dark. A disease spot diameter served as a measurement standard of the incidence degree of the apple fruits; diameters of 5 points of each disease spot were measured; and the mean value was taken as the result. Since 3 d after treatment, disease spot diameters of the apple fruits in different treatments were photographed and recorded every day; and the diameters were continuously recorded for 4 d. A significance level of disease spot size differences among the treatment groups was calculated according to analysis of variance.

[4] = tested on: Botryosphaeria dothidea; test: In-vitro inoculation of sorbitol-soaked mature "Golden delicious" apple fruits with ring rot fungus
Experimental: as §1
S51: An in-vitro inoculation method was adopted for identifying disease resistance of the “Golden delicious” apple fruits; and 6 treatments were set as follows:
S52: Surfaces of mature “Golden delicious” fruits (within 135 days after flowering) were disinfected with 0.1% of sodium hypochlorite; and the fruits were fully washed with sterilized deionized water, aired and stood at 25° C. for 12 h for later use.
S53: The “Golden delicious” fruits of the same size were selected and respectively soaked in the sterilized deionized water, the sorbitol solution of 100 mM, the sorbitol solution of 150 mM, the sorbitol solution of 200 mM and the sorbitol solution of 300 mM; and 10 fruits were treated in each treatment. The apples were taken out within 3 h after treatment; surface liquid was wiped up; middle parts of the surfaces of the apple fruits were punctured by sterilized toothpicks at a depth of 5 mm; 0.02 g of Botryosphaeria dothidea hyphae having vigorous and consistent growth within 10 days was added into the punctured parts; and the single pathogenic fungus inoculation treatment was taken as control. After inoculation, the “Golden delicious” fruits were cultured in a thermostatic incubator at 28° C. in the dark. A disease spot diameter served as a measurement standard of the incidence degree of the apple fruits; diameters of 5 points of each disease spot were measured; and the mean value was taken as the result. Since 3 d after treatment, disease spot diameters of the apple fruits in different treatments were photographed and recorded every day; and the diameters were continuously recorded for 4 d. A significance level of disease spot size differences among the treatment groups was calculated according to analysis of variance.

[5] = sorbitol solution of 200 mM, soak 3 h, 6 d after inoculation
[6] = sorbitol solution of 300 mM, 6 d after inoculation
[7] = sorbitol solution soak 3 h, 3-6 d after inoculation

## OC[C@@H](O)[C@@H](O)[C@H](O)[C@@H](O)CO [sorbitol, D-Sorbitol]
[1]
  optimum treatment concentration: 200 mM
[1]; [5]
  disease spot diameter: 0.76 cm
[1]; [6]
  disease spot diameter versus 200 mM treatment: no significant difference
[1]; [7]
  increase rate of the disease spot diameters compared with the control: significantly decreased
[2]
  optimum treatment concentration: 150 mM
[2]; sorbitol solution of 150 mM, soak 3 h, 6 d after inoculation
  disease spot diameter: 1.86 cm
[2]; sorbitol solution of 200 mM, 6 d after inoculation
  disease spot diameter versus 150 mM treatment: no significant difference
[2]; [6]
  disease spot diameter versus 150 mM treatment: no significant difference
[2]; [7]
  increase rate of the disease spot diameters compared with the control: significantly decreased
[3]
  optimum treatment concentration: 200 mM
[3]; [5]
  average disease spot diameter: 1.89 cm
[3]; [6]
  disease spot diameter versus 200 mM treatment: no significant difference
[3]; [7]
  increase rate of the disease spot diameters compared with the control: significantly decreased
[4]
  optimum treatment concentration: 200 mM
[4]; [5]
  average disease spot diameter: 1.70 cm
[4]; [6]
  disease spot diameter versus 200 mM treatment: no significant difference
[4]; [7]
  increase rate of the disease spot diameters compared with the control: significantly decreased
